Measured values reported in patent US6693123B2 (University of Pittsburgh, priority 1995, dated 2004).

Tests used:
[1] = target: T1, Rat brain protein farnesyltransferase (Rattus norvegicus, UniProt Q02293+Q04631); test: In vitro inhibition of protein farnesyltransferase, Amersham scintillation proximity assay with biotin-K Ras B fragment; assay type: biochemical; details: Inhibition of farnesyltransferase; for inhibition at 1 µM: compound at 1 × 10^−6 M (Table 2), read-out: % inhibition at 1 × 10^−6 M
T1 construct: The enzyme is purified according to Reiss, Y., et al., Cell, 62: 81-88 (1990), utilizing steps one through three; from tissue; host or cells: rat brain

[2] = tested on: geranylgeranyltransferase I; test: Inhibition of geranylgeranyltransferase I (glass fiber filter binding assay, H-Ras-CVLL, 3H-GGPP); assay type: biochemical, bovine; details: for Activity: % inhibition at 1 × 10^−6 M: compound at 1 × 10^−6 M (Table 5)
From the text: The ability of the compounds of the invention to inhibit protein farnesyltransferase or protein geranylgeranyltransferase can be measured according to the method of Moores, et al., J. Biol. Chem. 266: 14603 (1991) or the method of Vogt, et al., J. Biol. Chem. 270:660-664 (1995). In addition, procedures for determination of the inhibition of farnesylation of the oncogene protein Ras are described by Goldstein, et al., J. Biol. Chem., 266:15575-15578 (1991) and by Singh in U.S. Pat. No. 5,245,061.
Additional methods for the measurement of in vitro inhibition of protein prenylation (i.e., inhibition of farnesyltransferase or geranylgeranyltransferase) are described below.
Assays are performed using the glass fiber filter binding assay procedure with either rabbit reticulocyte lysate or Frase or GGTase I fractions isolated from bovine brains using a combination of hydrophobic and DEAE column chromatography procedures. Protein substrates are purchased from Panvera Corporation (H-ras for FTase, H-ras-CVLL for GGTase I). Tritium labeled prenyl lipid substrates (FPP or GGPP) are obtained from Amersham Life Science.
^3H-geranylgeranyldiphosphate (final concentration 0.5 μM), H-Ras-CVLL (final concentration 5.0 μM) and the test compound (various final concentrations from a stock solution in 1:1 DMSO/water; final concentration DMSO <2%) were mixed in buffer (50 mM Tris-HCl (pH 7.2), 30 mM MgCl2, 20 mM KCl, 10 μM ZnCl2, 5 mM DTT, 0.01% Triton X-100) to give a final volume of 50 μL. The mixture was brought to 37° C., treated with enzyme, and incubated for 30 minutes. 1 mL of 1 M HCl/ethanol was added to stop the reaction, and the mixture was allowed to stand for 15 minutes at room temperature then diluted with 2 mL of ethanol. The reaction mixture was filtered through a 2.5 cm glass microfiber filter from Whatman and washed with four 2 mL portions of ethanol. The glass filter was transferred to a scintillation vial, and 5 mL scintillation fluid was added. The radioisotope retained on the glass fiber filter was counted to reflect the activity of the enzymes. The IC50 value was calculated by measuring the activity of the enzyme over a suitable range of inhibitor concentrations.

SMILES | inhibition at 1 µM [1] | melting point | Activity: % inhibition at 1 × 10^−6 M [2] | inhibition at 10 µM ([1]; compound at 1 × 10^−5 M (Table 1)) | Activity: % inhibition at 1 × 10^−5 M ([2]; compound at 1 × 10^−5 M (Table 5))
CSCC[C@H](NC(=O)c1ccc(COc2cccnc2)cc1Oc1ccccc1)C(=O)O [Example 157, [4-(3-Pyridyloxymethylene)-2-phenoxybenzoyl]methionine] | 92% | 195 °C |  |  | 
CC(C)C[C@H](NC(=O)c1ccc(NCc2ncc[nH]2)cc1-c1ccccc1)C(=O)O [Example 953, N-[4-(Imidazol-2-ylmethylamino)-2-phenylbenzoyl]leucine] |  | 156 to 160 °C | >50% inhibition at 1 × 10^−6 M |  | 
CC(C)C[C@H](NC(=O)c1ccc(OCCn2ccnc2)cc1-c1ccccc1)C(=O)O [Example 964, N-[4-(2-Imidazol-1-ylethoxy)-2-phenylbenzoyl]leucine] | > 50% |  | >50% inhibition at 1 × 10^−6 M |  | 
O=C(N[C@@H](CC1CCCCC1)C(=O)O)c1ccc(NCc2c[nH]cn2)cc1-c1cccc2ccccc12 [Example 974, N-[4-(Imidazol-4-ylmethylamino)-2-naphth-1-ylbenzoyl]cyclohexyalanine] |  |  |  | > 50% | >50% inhibition at 1 × 10^−5 M
